Tests used:
4T1 tumor tissue = test: Lactate detection in tumor tissue (ELISA); assay type: in vivo, Balb/c mice; conditions: 20 mg/kg oral, 24 days
Text: The TAMs are the prominent components in the TEM and play a critical role in tumoral immunosuppression. Repolarization of protumor M2 phenotype into antitumor M1 phenotype is promising for malignant tumors. On the one hand, as a key metabolite fueling M2 polarization, lactate is very important in modulating the polarization state of macrophages within the tumor microenvironment. To verify that Rhein-DCA conjugate reprogrammed the metabolism of cells on solid tumors, we analyzed the expression of pPDHA1-Ser^293 protein in tumor tissues with immunohistochemical staining (IHC) (Figure 7A). […] The end product lactate of glycolysis decreased 20%, consistent with DCA's ability to reverse the Warburg effect. […] On the other hand, the ICD behavior of cancer cells also can activate TAMs into M1 polarization. Then, the release of HMGB1 was evaluated to assess the ICD effect in vivo with immunofluorescence staining (IF) (Figure 7C).
Tumor tissues were collected and homogenized in ice-cold PBS (1:10, w/v). The tissue was disrupted using sonication in ice bath (power 400 W, the duration of sonication is 3 s, the interval duration of 3 s, total sonication time of 20 min). The homogenate was centrifuged at 5000 G for 10 min at 4 °C to obtain the supernatant. The lactate content was analyzed with a lactate ELISA kit according to the manufacturer's protocol. The results were normalized to the weight of the tumor and reported as µmol lactate/g tissue.

4T1 cells = test: RNA sequencing and analysis (DEGs, GSEA); assay type: cell-based, Mouse; conditions: 6.25 μM, 12 h, RNA-seq
Experimental: To understand the effect of Rhein-DCA conjugate on the energy flow of glycolysis in cancer cells, we performed RNA sequencing analysis on 4T1 cell lines to analyze the genome. After various treatments for 12 h, all samples were clustered via principal component analysis (PCA) (Figure S12). […] Furthermore, the DEGs involved in glycolysis pathway of kyoto encyclopedia of genes and genomes (KEGG) databases were analyzed (Figure 2G). […] But as a pyruvate analogue, DCA led to the inactivation of PDK1 by binding to the pyruvate-binding pocket of PDK1 protein, together with down-regulation of PDK1 gene, thus leading more prominent restraint of glycolysis.
We next investigated whether the OXPHOS route would be further undermined by Rhein-DCA conjugate when the glycolysis was blocked. […] Thus, it was imperative to simultaneously halt glycolysis and OXPHOS to induce energy obstruction and apoptosis.
4T1 cells were seeded in 10 cm culture dishes and cultured until the confluency reached approximately 80%. The cells were treated with PBS, DCA, rhein, and Rhein-DCA conjugate (at a concentration of 6.25 μM) for 12 h. After that, the cells were collected and suspended in TRIzol Reagent for RNA sequencing. All samples were sent to Shanghai Majorbio Bio-pharm Biotechnology Co., Ltd. (Shanghai, P. R. China) for detection. Total RNA was extracted from 4T1 cells and was measured using the nanodrop-2000. The quality of RNA was evaluated by agarose gel electrophoresis and analyzed with Agilent5300. cDNA libraries were constructed according to the Illumina stranded mRNA prep, Ligation (USA) protocol. The DNA was further enriched by PCR amplification and purified by 2% Low Range Ultra Agarose. Clusters were generated by Bridge PCR on the cBot after being quantified by Qubit 4.0, and sequenced with NovaSeq X Plus platform (PE150). The differential expression analysis of various gene expressions was performed using DESeq2. The GO functional enrichment and KEGG pathway analysis were conducted on Goatools and Python scipy software.

[1] = test system: Cyt C protein in 4T1 cells; test: Western blot of Cyt C; assay type: cell-based, Mouse; conditions: 6.25 μM, 24 h
Experimental: The opening of mPTP in mitochondria often leads to the release of pro-apoptotic factor such as cytochrome C (Cyt C), thereby inducing apoptosis. Western blot was applied to measure the level of Cyt C in 4T1 cells after treatment with different drugs. The ratio of the integrated density value of target Cyt C protein to the internal parameter β-actin protein was also analyzed (Figure 4B). […] The released Cyt C in the rhein and R + D groups was 4.4- and 5.0-fold than that of the control group, respectively, clarifying that rhein component could boost the release of Cyt C in 4T1 cells.
4T1 cells were seeded in 6-well plates at a density of 20 × 10^4 cells per well and cultured for 24 h. Then the cells were treated with rhein, DCA, R + D and Rhein-DCA conjugate, each at a concentration of 6.25 μM for 24 h. Cells were washed twice with PBS and lysed by RIPA total protein extraction solution containing multiple protease inhibitors for 30 min while being maintained on ice. The lysate was centrifuged at 9391 G for 10 min at 4 °C to obtain the total protein solution. The concentrations of total protein were determined with BCA Protein Assay Kit. The protein was further denatured with 5 × protein loading buffer at 100 °C for 15 min. Sodium dodecyl sulfate polyacrylamide gel electrophoresis was conducted to separate the protein and transferred it to PVDF membranes. The PVDF membranes were blocked with 5% skim milk for 30 min at room temperature and incubated with indicated primary antibodies: Anti-Cytochrome C Rabbit pAb (1:1000); Anti-β-actin Rabbit pAb (1:1000); or Anti-PDHA1 Rabbit mAb (phosphoS^293) (1:1000) overnight at 4 °C. The membranes were incubated with HRP conjugated Goat Anti-Rabbit IgG (H+L) (1:5000), respectively, for 30 min at room temperature and then analyzed by chemiluminescence (Clinx,6100).

Row | SMILES | decrease of tumor lactate (4T1 tumor tissue; vs vehicle) | PDK1 gene expression (4T1 cells) | released Cyt C, in words [1] | tumor lactate level, in words (4T1 tumor tissue) | released Cyt C relative to control group (Cyt C/β-actin) [1] | tumor lactate level as percentage of the vehicle group (4T1 tumor tissue)
1 | O=C(O)C(Cl)Cl [DCA, Dichloroacetate] | 20% | down-regulated | could almost be disregarded |  |  | 
2 | O=C(O)c1cc(O)c2c(c1)C(=O)c1cccc(O)c1C2=O [Rhein, 4,5-dihydroxyanthraquinone-2-carboxylic acid] |  | down-regulation |  | reduced tumor lactate levels | 4.4 fold | 
3 | O=C(OCCOC(=O)C(Cl)Cl)c1cc(O)c2c(c1)C(=O)c1cccc(O)c1C2=O [Rhein-DCA] |  | significant down-regulation | more Cyt C than rhein and R + D groups |  |  | 44%
